For one experiment, the system named is HEK293 T-REx WT cells. The experiment in a line: 3D Structured Illumination Microscopy (3DSIM) of mitochondrial morphology. In kind it is cell-based, human. To be noted: 2 μM. The protocol:
HEK293 T-REx WT and CLPP^'1/− cells were seeded on coverslips (Electron Microscopy Sciences) pre-coated with poly-D-lysine hydrobromide (Sigma-Aldrich) in a 12-well culture plate (Falcon). Cells were grown for 24 hours to allow adhesion, followed by treatment with 2 μM ADEP-41 or DMSO in the same manner as described in previous sections, for 24 or 72 hours. At these time points, the original media was removed, and cells were incubated for 30 minutes at 37° C., 5% CO2 with 200 nM MitoTracker Red CMXRos (Molecular Probes) in Opti-MEM™ Reduced Serum Medium (Gibco). Cells were then washed once with PBS and fixed with 4% (v/v) paraformaldehyde (Electron Microscopy Sciences) in PBS for 20 minutes at room temperature.
The fixed cells were then washed twice with PBS, permeabilized with 0.2% (v/v) Triton X-100 (BioShop) in PBS for 10 minutes at room temperature and incubated with 2 μg/mL Hoechst 33342 (Molecular Probes) in PBS for 10 minutes at room temperature to counterstain nuclei. Coverslips were then washed three times with PBS+0.05% (v/v) Tween-20 and mounted on microscope glass slides (VWR) using 0.5% (w/v) propyl gallate (Sigma-Aldrich) dissolved in glycerol as the mounting medium.
3DSIM data were collected on the ELYRA PS.1 super resolution microscope (Carl Zeiss Microscopy) using a 63× (1.4 NA) Plan-Apochromatic oil immersion objective (Carl Zeiss Microscopy) and a 1.6× Optovar. […]

In the next experiment the test system is HeLa (regular) cells. The experiment in a line: Cytotoxicity, SRB staining. On the technique in general: In SRB staining, fixed cells bind dye roughly in proportion to their protein.
In experiment [1] the test system is undifferentiated SH-SY5Y cells. Put plainly: Cytotoxicity, SRB staining.
Protocol: (§1) To assess the cytotoxicity of ADEP analogs, cells were seeded at 1×10^3 or 2×10^3 cells in 50 μL per well on sterile 96-well flat-bottom tissue culture plates (VWR). Growth media without any cells was included as a control. Cells were grown for at least 24 hours to allow proper adherence to the growth surface. Afterwards, ADEP analogs were serially diluted and introduced to the tissue cultures via fresh growth media at 50 μL per well. Inclusion of activators/DMSO brought the final DMSO concentration of the growth media up to a maximum of 0.5% (v:v). […] A total of four independent replicates were prepared for each cell line and for each growth condition used. Cells were grown in the presence of ADEP/DMSO for 72 hours.
(§2) To assess cell survival, live adherent cells were fixed with 10% (w:v) trichloroacetic acid (TCA) at 4° C. for 1-2 hours. The tissue culture plates were then rinsed with water to remove dead cells and cell debris and air-dried overnight. […] Absorbance at λ=510 nm (A510) was then measured using the EnSpire 2300 Multilabel Reader. […]
(§3) To determine the IC50 for the ADEP analogs, relative cell viability (RCV) values were calculated by normalizing the A510 readings in ADEP-containing sample to the DMSO-only control. […]
The test system of another experiment is HeLa T-REx cells. The experiment in a line: Cytotoxicity, SRB staining.
Experiment [2] deals with T1, human mitochondrial CIpP (HsCIpP) (Homo sapiens, UniProt Q16740).
T1 construct: made in house; host or cells: E. coli SG1146 (BL21(DE3) ΔclpP::cat)
Put plainly: Screen of ADEP analogs against HsCIpP: relative degradation (RD) index, casein-FITC degradation relative to E. coli CIpAP. The experiment is classed as biochemical. On the set-up: key: casein-FITC degradation by HsClpP relative to EcClpAP.

The subject of the next experiment is U2OS cells. Put plainly: Cytotoxicity, SRB staining.

Where a SMILES comes first, the peptide text is derived from it. Bridges are numbered along the chain shown (N, C = ends). [ ]: non-standard residue; d: D form. The star is where a group is joined. Phe(3,5-F2) = N[C@@H](Cc1cc(F)cc(F)c1)C(=O)O; Heptenoyl(2E) = CCCC/C=C/C(=O)*; aThr = C[C@H](O)[C@H](N)C(=O)O; Pip = O=C(O)[C@@H]1CCCCN1

T1 sequence (Q16740 57-277): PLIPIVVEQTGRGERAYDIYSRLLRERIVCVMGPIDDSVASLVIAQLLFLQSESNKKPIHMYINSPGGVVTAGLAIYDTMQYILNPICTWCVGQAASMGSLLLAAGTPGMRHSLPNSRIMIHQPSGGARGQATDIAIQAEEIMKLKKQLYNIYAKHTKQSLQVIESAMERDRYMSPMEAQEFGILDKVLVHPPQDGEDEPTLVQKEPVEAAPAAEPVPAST
Protocol for HeLa (regular) cells: as §1, §2, §3
Protocol for HeLa T-REx cells: as §1, §2, §3
Protocol for U2OS cells: as §1, §2, §3

In the case of `CCCC/C=C/C(=O)N[C@@H](Cc1cc(F)cc(F)c1)C(=O)N[C@@H]1C(=O)N2CCC[C@H]2C(=O)N2CCCC[C@H]2C(=O)N[C@@H](C)C(=O)N2CCC[C@H]2C(=O)O[C@H]1C` [ADEP-41] ({Heptenoyl(2E)}-[Phe(3,5-F2)][aThr]P[Pip]AP; ester 2-C), the mitochondrial fragmentation entry in the experiment with HEK293 T-REx WT cells (24 hours) is given as “clear signs of mitochondrial fragmentation”; in the experiment with HEK293 T-REx WT cells (72 hours), “very significant”. Moreover, the “IC50 compared across cell lines” value is on record as “similar” in the experiment on HeLa (regular) cells, “slightly higher value” in experiment [1], “similar” with HeLa T-REx cells and “similar” with U2OS cells. Further, the “Hs RD1” value in experiment [2] (RD value at 1 μM of the ADEP analog) was 0.79. For the same compound, the “Hs RD5” value in experiment [2] (RD value at 5 μM of the ADEP analog) is recorded as 0.93. Besides, the “Hs RD25” value in experiment [2] (RD value at 25 μM of the ADEP analog, measure of ability to activate HsCIpP) is given as 0.96.

The values above are taken from patent publication US20210171576A1, “METHODS FOR TREATING CANCER WITH ACYLDEPSIPEPTIDE ANALOGS” (priority 2018, published 2021).
